{
  "source": "ChEMBL document CHEMBL1201862",
  "about": "“PubChem BioAssay data set” (2004)",
  "key": {"[1]": {"experiment": "Luminescence Cell-Based Dose Confirmation HTS to Identify Activators of 5'UTR Stem-Loop Driven Alpha-Synuclein mRNA Translation in H4 Neuroglioblastoma Cells. [Related pubchem assays: 1829 (Project Summary), 1814 (Primary HTS)]", "assay_type": "functional"}, "[2]": {"experiment": "inhibitors of intracellular T. cruzi replication, confirmation, NIH3T3 host cells, beta-gal luminescence (AID 2044);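 note: luminescent beta-galactosidase reporter signal from transgenic T. cruzi replicating inside host cells; inhibitors lower the luminescence signal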", "assay_type": "functional, cell-based"}, "[3]": {"biological_target": "DNA damage-inducible transcript 3 protein (Mus musculus, UniProt P35639)", "sequence (P35639 whole entry)": "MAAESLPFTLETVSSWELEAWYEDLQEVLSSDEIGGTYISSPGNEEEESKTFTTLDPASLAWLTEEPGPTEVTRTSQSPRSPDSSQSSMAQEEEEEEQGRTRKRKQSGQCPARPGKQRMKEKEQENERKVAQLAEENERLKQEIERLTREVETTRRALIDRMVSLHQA", "assay_type": "functional, Cricetulus griseus"}, "H4": {"system": "H4", "experiment": "Luminescence Cell-Based Dose Response HTS to Identify Activators of 5'UTR Stem-Loop Driven Prion Protein mRNA Translation in H4 Neuroglioblastoma Cells. [Related pubchem assays: 1829 (Project Summary), 1814 (Primary HTS)]", "assay_type": "functional", "settings": "Homo sapiens"}, "A-375": {"system": "A-375", "experiment": "MITF: Counter assay: A375 proliferation Measured in Cell-Based System Using Plate Reader - 2084-03_Inhibitor_Dose_DryPowder_Activity. [Related pubchem assays (depositor defined):AID488944]", "assay_type": "functional", "settings": "Homo sapiens"}, "[4]": {"experiment": "control 3'UTR Renilla luciferase suppression, dose response, counter-screen for Shn3 inhibitor project, cell-based, Clone20-Shn3RL, cherry-picked (AID 624133)", "assay_type": "functional"}, "[5]": {"experiment": "cytotoxicity toward NIH3T3 fibroblasts, dose response, counter-screen, cell-based, ATP luminescence, mouse fibroblasts (AID 2010);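 note: cells exposed to compound for about 90 hours before reading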", "assay_type": "functional"}, "[6]": {"biological_target": "T1, Microphthalmia-associated transcription factor (Homo sapiens, UniProt O75030)", "T1 sequence (O75030 whole entry)": "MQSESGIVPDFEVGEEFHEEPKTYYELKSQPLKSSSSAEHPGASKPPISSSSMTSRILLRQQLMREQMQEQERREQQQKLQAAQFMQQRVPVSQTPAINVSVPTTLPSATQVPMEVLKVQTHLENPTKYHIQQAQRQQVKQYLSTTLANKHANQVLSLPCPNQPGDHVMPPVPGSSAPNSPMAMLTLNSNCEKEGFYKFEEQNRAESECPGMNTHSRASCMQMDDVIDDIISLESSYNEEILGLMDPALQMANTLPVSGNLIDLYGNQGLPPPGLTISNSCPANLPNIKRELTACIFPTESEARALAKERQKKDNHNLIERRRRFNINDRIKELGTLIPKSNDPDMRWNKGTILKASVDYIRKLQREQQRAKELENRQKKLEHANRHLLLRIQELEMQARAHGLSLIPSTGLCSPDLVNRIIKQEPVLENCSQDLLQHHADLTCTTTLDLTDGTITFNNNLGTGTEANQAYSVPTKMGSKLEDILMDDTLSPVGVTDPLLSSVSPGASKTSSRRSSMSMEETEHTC", "experiment": "TRPM1 promoter luciferase signal decrease, dose response, MITF inhibitor project, cell-based, SK-MEL-5, cherry-picked, set 3 (AID 493073)", "assay_type": "functional"}, "[7]": {"experiment": "Luminescence Cell-Based Dose Response HTS to Identify Activators of Luciferase Translation or Activity in H4 […] Cells. [Related pubchem assays: 1829 (Project Summary), 1814 (Primary HTS)]", "assay_type": "functional"}, "[8]": {"experiment": "Shn3 3'UTR reporter inhibitors, dose response, cell-based, Clone20 osteoblasts, firefly luciferase, cherry-picked (AID 624132)", "assay_type": "functional"}, "[9]": {"experiment": "HepG2 cell cytotoxicity, dose response, cytotoxicity control for Shn3 inhibitor project, CellTiter-Glo, cherry-picked (AID 624134)", "assay_type": "functional, cell-based"}, "Cannabinoid receptor 1": {"biological_target": "Cannabinoid receptor 1 (Homo sapiens, UniProt P21554)", "sequence (P21554 whole entry)": "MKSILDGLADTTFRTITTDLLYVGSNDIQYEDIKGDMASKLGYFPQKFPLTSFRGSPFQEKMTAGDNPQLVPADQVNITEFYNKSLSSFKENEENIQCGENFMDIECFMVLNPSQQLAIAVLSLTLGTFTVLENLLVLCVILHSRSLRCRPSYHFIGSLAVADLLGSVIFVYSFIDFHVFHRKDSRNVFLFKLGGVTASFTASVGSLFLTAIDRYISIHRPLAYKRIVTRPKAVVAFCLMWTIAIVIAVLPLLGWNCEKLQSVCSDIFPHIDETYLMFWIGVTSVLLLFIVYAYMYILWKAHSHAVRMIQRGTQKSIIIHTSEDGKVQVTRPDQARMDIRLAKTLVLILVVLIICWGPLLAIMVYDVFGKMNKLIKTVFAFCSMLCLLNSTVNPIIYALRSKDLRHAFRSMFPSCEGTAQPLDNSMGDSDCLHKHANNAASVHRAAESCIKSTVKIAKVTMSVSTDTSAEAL", "experiment": "SAR analysis of antagonists of the Cannabinoid Receptor 1 using an Image-Based Assay. [Related pubchem assays (depositor defined):AID1961, AID1965]", "assay_type": "functional"}, "[10]": {"biological_target": "T2, G-protein coupled receptor 55 (Homo sapiens, UniProt Q9Y2T6)", "T2 sequence (Q9Y2T6 whole entry)": "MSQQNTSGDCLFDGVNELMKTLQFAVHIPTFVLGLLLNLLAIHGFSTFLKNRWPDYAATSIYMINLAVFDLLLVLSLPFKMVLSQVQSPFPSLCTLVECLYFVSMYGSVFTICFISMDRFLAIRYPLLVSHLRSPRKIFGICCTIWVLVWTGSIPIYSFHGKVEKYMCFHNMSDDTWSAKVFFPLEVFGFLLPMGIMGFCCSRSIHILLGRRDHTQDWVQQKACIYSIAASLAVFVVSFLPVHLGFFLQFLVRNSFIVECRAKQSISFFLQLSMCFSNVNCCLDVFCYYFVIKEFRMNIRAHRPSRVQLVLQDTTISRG", "experiment": "GPR55 agonists via beta-arrestin recruitment, primary screen, imaging, U2OS cells, beta-arrestin-GFP redistribution (AID 1961)", "assay_type": "functional"}, "Cannabinoid receptor 2 [11]": {"biological_target": "T3, Cannabinoid receptor 2 (Homo sapiens, UniProt P34972)", "T3 sequence (P34972 whole entry)": "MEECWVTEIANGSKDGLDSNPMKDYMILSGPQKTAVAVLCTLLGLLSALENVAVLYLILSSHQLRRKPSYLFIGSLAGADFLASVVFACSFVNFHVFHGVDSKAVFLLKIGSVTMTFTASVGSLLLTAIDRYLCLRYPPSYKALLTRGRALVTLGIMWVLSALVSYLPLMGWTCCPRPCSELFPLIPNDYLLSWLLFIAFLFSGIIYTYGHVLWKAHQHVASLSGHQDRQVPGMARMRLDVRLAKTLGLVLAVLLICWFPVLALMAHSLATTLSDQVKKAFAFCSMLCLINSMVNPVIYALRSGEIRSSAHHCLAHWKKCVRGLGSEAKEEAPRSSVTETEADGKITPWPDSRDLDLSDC", "experiment": "SAR analysis of antagonists of the Cannabinoid Receptor 2 using an Image-Based Assay - Set 2. [Related pubchem assays (depositor defined):AID1961, AID1965]", "assay_type": "functional"}, "Cannabinoid receptor 2 [12]": {"biological_target": "T3, Cannabinoid receptor 2", "experiment": "SAR analysis of agonists of the Cannabinoid Receptor 2 using an Image-Based Assay - Set 2. [Related pubchem assays (depositor defined):AID1961, AID1965]", "assay_type": "functional"}, "[13]": {"biological_target": "T2, G-protein coupled receptor 55", "experiment": "SAR analysis of selective Agonists of GPR55 using an Image-Based Assay. [Related pubchem assays (depositor defined):AID1961, AID1965]", "assay_type": "functional"}, "[14]": {"biological_target": "T4, Kappa-type opioid receptor (Homo sapiens, UniProt P41145)", "T4 sequence (P41145 whole entry)": "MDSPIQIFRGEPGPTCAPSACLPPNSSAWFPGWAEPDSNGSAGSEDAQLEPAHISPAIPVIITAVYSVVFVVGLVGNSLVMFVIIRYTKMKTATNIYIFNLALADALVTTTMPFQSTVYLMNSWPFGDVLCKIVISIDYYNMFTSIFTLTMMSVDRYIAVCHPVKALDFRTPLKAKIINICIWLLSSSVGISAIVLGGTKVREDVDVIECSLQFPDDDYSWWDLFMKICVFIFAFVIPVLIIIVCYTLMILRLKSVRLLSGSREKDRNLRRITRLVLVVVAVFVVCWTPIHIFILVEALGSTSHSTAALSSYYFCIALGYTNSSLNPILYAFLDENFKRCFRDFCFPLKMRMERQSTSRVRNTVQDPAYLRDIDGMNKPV", "assay_type": "functional"}, "[15]": {"biological_target": "T5, Delta-type opioid receptor (Homo sapiens, UniProt P41143)", "T5 sequence (P41143 whole entry)": "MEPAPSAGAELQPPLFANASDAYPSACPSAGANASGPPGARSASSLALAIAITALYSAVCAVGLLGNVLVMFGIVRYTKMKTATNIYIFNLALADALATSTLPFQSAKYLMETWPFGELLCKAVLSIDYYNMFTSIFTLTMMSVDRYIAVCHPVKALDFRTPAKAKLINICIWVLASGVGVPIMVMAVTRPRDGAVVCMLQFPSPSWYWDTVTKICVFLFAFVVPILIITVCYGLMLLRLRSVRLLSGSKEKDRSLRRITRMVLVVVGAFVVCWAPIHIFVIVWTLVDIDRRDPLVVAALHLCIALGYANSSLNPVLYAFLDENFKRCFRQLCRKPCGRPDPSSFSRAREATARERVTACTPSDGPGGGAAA", "experiment": "HTS Image-Based Screen for Antagonists of the DOR Receptor. [Related pubchem assays (depositor defined):AID1777, AID1785, AID1786, AID2133]", "assay_type": "functional"}, "[16]": {"biological_target": "T5, Delta-type opioid receptor", "experiment": "HTS Image-Based Screen for Agonists of the DOR Receptor. [Related pubchem assays (depositor defined):AID1777, AID1786, AID2133]", "assay_type": "functional"}, "[17]": {"biological_target": "T4, Kappa-type opioid receptor", "assay_type": "functional", "remark": "listed apart in the source"}, "Mu-type opioid receptor": {"biological_target": "Mu-type opioid receptor (Homo sapiens, UniProt P35372)", "sequence (P35372 whole entry)": "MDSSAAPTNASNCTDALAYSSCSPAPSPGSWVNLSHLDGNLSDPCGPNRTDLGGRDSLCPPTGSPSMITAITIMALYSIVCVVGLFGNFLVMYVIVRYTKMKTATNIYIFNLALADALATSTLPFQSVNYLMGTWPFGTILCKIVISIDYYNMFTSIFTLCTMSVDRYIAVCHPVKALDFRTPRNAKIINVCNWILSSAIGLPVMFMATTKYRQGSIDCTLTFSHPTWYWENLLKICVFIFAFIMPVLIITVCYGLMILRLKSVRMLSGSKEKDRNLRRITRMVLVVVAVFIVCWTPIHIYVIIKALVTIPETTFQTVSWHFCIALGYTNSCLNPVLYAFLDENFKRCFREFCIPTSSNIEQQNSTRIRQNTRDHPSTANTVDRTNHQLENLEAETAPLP", "experiment": "HTS Image-Based Screen for Agonists of the MOR Receptor. [Related pubchem assays (depositor defined):AID1777, AID1785, AID1786, AID2133]", "assay_type": "functional"}},
  "note": "Active and inactive are the calls of the source.",
  "data": [
    {"molecule": "CC(C)(C)C(=O)Cn1ncc(Br)c(Br)c1=O", "values": [
      {"measurement": "EC50", "setting": "[1]", "result": "> 120 µM (not active)"},
      {"measurement": "EC50", "setting": "[2]", "result": "2.19 µM (active)"},
      {"measurement": "Absolute IC50 (CHOP)", "setting": "[3]", "result": 10, "unit": "µM"},
      {"measurement": "EC50", "setting": "H4", "result": "> 120 µM (not active)"},
      {"measurement": "AC50", "setting": "A-375", "result": "32.8 µM (active)"},
      {"measurement": "AC50", "setting": "[4]", "result": "13.9 µM (active)"},
      {"measurement": "EC50", "setting": "[5]", "result": "1.93 µM (active)"},
      {"measurement": "AC50", "setting": "[6]", "result": "3.92 µM (active)"},
      {"measurement": "EC50", "setting": "[7]", "result": "> 120 µM (not active)"},
      {"measurement": "AC50", "setting": "[8]", "result": "9.51 µM (active)"},
      {"measurement": "AC50", "setting": "[9]", "result": "67.2 µM (active)"}
    ]},
    {"molecule": "O=C(CSc1nc2ccccc2s1)N1c2ccccc2Sc2ccc(Cl)cc21", "values": [
      {"measurement": "IC50", "setting": "Cannabinoid receptor 1", "result": "> 32 µM (inactive)"},
      {"measurement": "EC50", "setting": "[10]", "result": "0.84 µM (active)"},
      {"measurement": "IC50", "setting": "Cannabinoid receptor 2 [11]", "result": "> 32 µM (inactive)"},
      {"measurement": "EC50", "setting": "Cannabinoid receptor 2 [12]", "result": "0.0905 µM (active)"},
      {"measurement": "EC50", "setting": "[13]", "result": "0.748 µM (active)"}
    ]},
    {"molecule": "CC(Sc1nnc(CN2CCCC2)n1Cc1ccccc1)C(=O)Nc1ccc(F)cc1", "note": "(stereo unspecified)", "values": [
      {"measurement": "EC50", "setting": "[14]", "result": 3.82, "unit": "µM"},
      {"measurement": "IC50", "setting": "[15]", "result": "> 32 µM (inactive)"},
      {"measurement": "EC50", "setting": "[16]", "result": "> 32 µM (inactive)"},
      {"measurement": "EC50", "setting": "[17]", "result": 3.33, "unit": "µM"},
      {"measurement": "EC50", "setting": "Mu-type opioid receptor", "result": "> 32 µM (inactive)"}
    ]}
  ]
}
